Laboratory results from publication PMC9170038.

Legend:
[1] = tested on: Tetracycline aptamer, RNA-MaP condition construct (RNA, aptamer) GGAAAGGCGCUAAAACAUACCAGUUCGCUGGAGAGGUGAAGAAUACGACCACCUAGCGCCAAAGAAACAACAACAACAAC; assay: 1M7 chemical mapping; conditions: 80 mM KCl, 4 mM MgCl2; 100 mM Tris-HCl, pH 7.5, 37 °C
[2] = tested on: Tetracycline aptamer, Light-up construct (RNA, aptamer) GGGAACGUCUCCGAGUAGGAGACGAAGGGAGAGUGGCAGCUUACAACGCUAAAACAUACCUGCACCACCGACCUUGAAAACAAGGGUAACGAAUGUGGAGCAGGAGAGGUGAAGAAUACGACCACCUAGCGAAGUGGGCUGUUGCUUUUCCAAGCUUAUCGAGUAGAUAAGCAAAAAGAAACAACAACAACAAC; assay: DMS chemical mapping; conditions: 5 mM MgCl2, 1x PBS, pH 6.1, 24 °C
[3] = tested on: FMN aptamer, RNA-MaP condition construct (RNA, aptamer) GGAAAGGCGUGUAGGAUAUGCUUCGGCAGAAGGACACGCCAAAGAAACAACAACAACAAC; assay: 1M7 chemical mapping; conditions: 80 mM KCl, 4 mM MgCl2; 100 mM Tris-HCl, pH 7.5, 37 °C
[4] = tested on: FMN aptamer, Light-up construct (RNA, aptamer) GGGAACGUCUCCGAGUAGGAGACGAAGGGAGAGUGGCAGCUUACAAUUCCAGCCGACCACUGAAAUACUCUAGAGGAUAUGACAGACAAAGUCUGUCAGAAGGCUAGAGCAGUGGGUAACGAAUGCUGGAAAAGUGGGCUGUUGCUUUUCCAAGCUUAUCGAGUAGAUAAGCAAAAAGAAACAACAACAACAAC; assay: DMS chemical mapping; conditions: 5 mM MgCl2, 1x PBS, pH 6.1, 24 °C
[5] = tested on: BC_JL-sng2-3.09 (RNA, aptamer) GGGUAUGUCGCAGAAGUAGCUAUCGGAGGAUAUUCAUACCGGAAACGGACAUGAGGAUCACCCAUGUGGCGAAAGCCUUGGGAGAAGGCUGAUAGCUACAACUGCGACAUACCCAAAAAAAAAAAAAAAAAAAAAAAAA; assay: flow cytometry of RNA beads with MS2 protein; DMS chemical mapping; conditions: RNA immobilised on beads; reversible over 80 FMN buffer exchanges

With `CN(C)[C@@H]1C(=O)C(C(N)=O)=C(O)[C@@]2(O)C(=O)C3=C(O)c4c(O)cccc4[C@@](C)(O)[C@H]3C[C@@H]12` the Kd [1] was 622.07 ± 132.12/-105.63 nM and the Kd [2] was 57.50 ± 22.58/-15.88 nM.
With `Cc1cc2nc3c(=O)[nH]c(=O)nc-3n(C[C@H](O)[C@H](O)[C@H](O)COP(=O)(O)O)c2cc1C` the Kd [3] was 1.71 ± 0.60/-0.44 μM, the Kd [4] was 1.57 ± 0.58/-0.41 μM and the binding [5] was “yes”.
